From publication PMC9533460 (RSC Chemical Biology, 2022)

How the values were obtained:
[1] = molecular target: T1, homoserine-dehydrogenase (HD) (Pseudomonas alvandae, UniProt P0DXC5); experiment: NADH formation; assay type: biochemical; conditions: homoserine as co-substrate
T1 sequence (P0DXC5 1-352): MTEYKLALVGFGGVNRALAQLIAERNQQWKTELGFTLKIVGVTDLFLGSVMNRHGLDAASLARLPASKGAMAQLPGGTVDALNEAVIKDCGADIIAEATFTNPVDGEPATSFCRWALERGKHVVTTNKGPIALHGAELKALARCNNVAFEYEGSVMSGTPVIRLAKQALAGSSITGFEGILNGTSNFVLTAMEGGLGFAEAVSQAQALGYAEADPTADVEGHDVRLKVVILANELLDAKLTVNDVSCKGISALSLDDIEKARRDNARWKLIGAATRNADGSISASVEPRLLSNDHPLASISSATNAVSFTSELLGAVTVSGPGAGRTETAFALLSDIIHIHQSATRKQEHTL

[2] = molecular target: T2, canavanine-γ-lyase (CanγL); aminotransferase AT (Pseudomonas alvandae, UniProt P0DXC4); experiment: UV/Vis spectra of the enzyme reaction; assay type: binding; conditions: covalent (internal aldimine with K213); canavanine as substrate
T2 sequence (P0DXC4 1-400): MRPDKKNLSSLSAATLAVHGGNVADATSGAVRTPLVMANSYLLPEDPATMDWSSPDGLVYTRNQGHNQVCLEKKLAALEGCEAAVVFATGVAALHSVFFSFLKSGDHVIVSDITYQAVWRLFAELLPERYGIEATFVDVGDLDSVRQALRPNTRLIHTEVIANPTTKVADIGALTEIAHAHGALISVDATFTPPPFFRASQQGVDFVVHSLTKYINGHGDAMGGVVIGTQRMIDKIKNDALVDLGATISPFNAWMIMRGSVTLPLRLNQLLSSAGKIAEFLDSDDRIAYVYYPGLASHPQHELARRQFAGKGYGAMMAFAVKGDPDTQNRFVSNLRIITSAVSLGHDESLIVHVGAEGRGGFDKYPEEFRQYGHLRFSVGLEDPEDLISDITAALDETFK

[3] = molecular target: T3, aldehyde-dehydrogenase 1 (AH) (Pseudomonas alvandae, UniProt P0DXC7); experiment: 1H-NMR of coupled reaction homoserine to fumarate; assay type: biochemical; conditions: aspartate semialdehyde formed in situ from homoserine by HD; with AAL
T3 sequence (P0DXC7 1-470): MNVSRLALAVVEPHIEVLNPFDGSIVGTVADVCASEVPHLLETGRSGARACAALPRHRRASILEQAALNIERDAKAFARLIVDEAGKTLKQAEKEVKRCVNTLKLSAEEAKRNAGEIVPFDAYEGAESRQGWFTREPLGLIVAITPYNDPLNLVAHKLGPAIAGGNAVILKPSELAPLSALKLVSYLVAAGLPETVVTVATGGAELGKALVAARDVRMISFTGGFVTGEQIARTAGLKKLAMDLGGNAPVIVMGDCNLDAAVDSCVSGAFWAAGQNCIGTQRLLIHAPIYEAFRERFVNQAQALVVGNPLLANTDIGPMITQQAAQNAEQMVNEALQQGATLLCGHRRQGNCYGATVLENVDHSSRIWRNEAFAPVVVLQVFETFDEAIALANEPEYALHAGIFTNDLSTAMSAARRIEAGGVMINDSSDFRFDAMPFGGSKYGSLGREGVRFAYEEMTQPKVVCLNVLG

[4] = molecular target: T4, aldehyde-dehydrogenase 2 (AC) (Pseudomonas alvandae, UniProt P0DXC6); experiment: 1H-NMR of coupled reaction homoserine to fumarate; assay type: biochemical; conditions: aspartate semialdehyde formed in situ from homoserine by HD; with AAL
T4 sequence (P0DXC6 1-485): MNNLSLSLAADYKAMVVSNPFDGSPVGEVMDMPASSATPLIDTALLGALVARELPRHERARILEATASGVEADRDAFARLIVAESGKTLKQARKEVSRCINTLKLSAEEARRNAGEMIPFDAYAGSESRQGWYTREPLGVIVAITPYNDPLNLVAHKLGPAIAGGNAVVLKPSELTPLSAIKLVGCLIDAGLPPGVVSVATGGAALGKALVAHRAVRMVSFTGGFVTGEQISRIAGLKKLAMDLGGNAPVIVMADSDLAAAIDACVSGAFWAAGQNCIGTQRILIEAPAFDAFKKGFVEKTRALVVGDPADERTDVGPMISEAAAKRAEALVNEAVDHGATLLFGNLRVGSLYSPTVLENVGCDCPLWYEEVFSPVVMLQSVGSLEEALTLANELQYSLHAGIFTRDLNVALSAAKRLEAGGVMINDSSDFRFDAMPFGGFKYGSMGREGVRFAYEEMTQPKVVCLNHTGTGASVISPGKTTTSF

[5] = molecular target: T5, ammonium–aspartate–lyase (AAL) (Pseudomonas alvandae, UniProt P0DXC8); experiment: 1H-NMR of coupled reaction homoserine to fumarate; assay type: biochemical; conditions: aspartate formed in situ by HD with AH or AC
T5 sequence (P0DXC8 1-474): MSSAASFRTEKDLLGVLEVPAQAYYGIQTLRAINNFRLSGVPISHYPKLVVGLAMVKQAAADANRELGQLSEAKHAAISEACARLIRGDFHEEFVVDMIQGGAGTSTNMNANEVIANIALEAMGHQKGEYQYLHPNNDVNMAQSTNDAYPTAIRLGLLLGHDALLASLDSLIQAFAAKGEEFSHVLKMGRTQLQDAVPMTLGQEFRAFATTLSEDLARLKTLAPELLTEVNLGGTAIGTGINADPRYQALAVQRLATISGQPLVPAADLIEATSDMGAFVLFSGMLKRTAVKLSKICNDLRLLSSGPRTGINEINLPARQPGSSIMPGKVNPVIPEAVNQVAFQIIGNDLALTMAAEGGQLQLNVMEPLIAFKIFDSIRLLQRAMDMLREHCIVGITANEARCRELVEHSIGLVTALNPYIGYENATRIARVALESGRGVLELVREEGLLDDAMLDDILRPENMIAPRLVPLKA

[6] = molecular target: T1, homoserine-dehydrogenase (HD); experiment: NADH formation; assay type: biochemical; conditions: NAD+ as co-substrate

**Q.** How did the NADH formation [1] turn out when `NC(=O)c1ccc[n+]([C@@H]2O[C@H](COP(=O)(O)OP(=O)(O)OC[C@H]3O[C@@H](n4cnc5c(N)ncnc54)[C@H](O)[C@@H]3O)[C@@H](O)[C@H]2O)c1` [NAD+] was run?
**A.** the reaction of HD was only dependent on the cofactor NAD^+

**Q.** Which “UV/Vis spectra of the enzyme reaction; K213A comparison” value [2] does the source give for `Cc1ncc(COP(=O)(O)O)c(C=O)c1O` [PLP] here?
**A.** Time-dependent increase of presumed aldimine and quinonoid peaks were observed for the wt enzyme

**Q.** `N[C@@H](CC=O)C(=O)O` [aspartate semialdehyde] was tested. Which “1H-NMR of coupled reaction homoserine to fumarate” value (shortened to “1H-NMR … to fumarate”) [3] did it give?
**A.** purified HD with either of the two aldehyde-dehydrogenases AH or AC and AAL

**Q.** What about the “1H-NMR … to fumarate” value [4] of the same molecule?
**A.** purified HD with either of the two aldehyde-dehydrogenases AH or AC and AAL

**Q.** For `N[C@@H](CC(=O)O)C(=O)O` [aspartate], which “1H-NMR … to fumarate” value [5] is on record?
**A.** AH or AC and AAL the formation of fumarate via aspartate was observed

**Q.** With `N[C@@H](CCO)C(=O)O` [homoserine] as the molecule, how does the “NADH formation; 1H-NMR of the coupled reaction” value [6] read?
**A.** homoserine-dehydrogenase (HD) which catalyzes the conversion of homoserine and NAD+
